Measured values as given in PMC7001764 (Cell reports, 2020).

T1: CAPN5-PC (calpain-5 protease core) (Homo sapiens, UniProt O15484)
T1 sequence (O15484 1-343): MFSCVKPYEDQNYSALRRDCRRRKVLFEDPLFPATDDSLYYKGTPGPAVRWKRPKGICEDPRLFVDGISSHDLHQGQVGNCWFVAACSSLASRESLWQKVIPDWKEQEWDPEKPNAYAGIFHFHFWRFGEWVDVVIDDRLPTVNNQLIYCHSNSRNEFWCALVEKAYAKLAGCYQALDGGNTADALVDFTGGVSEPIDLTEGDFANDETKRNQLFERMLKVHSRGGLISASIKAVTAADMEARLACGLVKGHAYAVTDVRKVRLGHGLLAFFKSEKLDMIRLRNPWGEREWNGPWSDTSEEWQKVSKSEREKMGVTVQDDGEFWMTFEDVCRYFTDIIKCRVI


Columns and labels:
[1] = molecular target: T1, CAPN5-PC (calpain-5 protease core); test: inhibition of Ac-LLY-AFC hydrolysis by purified CAPN5-PC; type: biochemical
purified protein = substrate: CC(=O)N[C@@H](CC(C)C)C(=O)N[C@@H](CC(C)C)C(=O)N[C@@H](Cc1ccc(O)cc1)C(=O)Nc1ccc2c(C(F)(F)F)cc(=O)oc2c1; test: purified protein; details: Ca2+ ([…])

| Molecule | IC50 [1] | Km (purified protein) |
| --- | --- | --- |
| CC(C)C[C@H](NC(=O)[C@H]1O[C@@H]1C(=O)O)C(=O)NCCCCN=C(N)N [E-64] | 1.2 ± 0.3 µM | – |
| CAPN5-PC (calpain-5 protease core) (Homo sapiens) (protein) MFSCVKPYEDQNYSALRRDCRRRKVLFEDPLFPATDDSLYYKGTPGPAVRWKRPKGICEDPRLFVDGISSHDLHQGQVGNCWFVAACSSLASRESLWQKVIPDWKEQEWDPEKPNAYAGIFHFHFWRFGEWVDVVIDDRLPTVNNQLIYCHSNSRNEFWCALVEKAYAKLAGCYQALDGGNTADALVDFTGGVSEPIDLTEGDFANDETKRNQLFERMLKVHSRGGLISASIKAVTAADMEARLACGLVKGHAYAVTDVRKVRLGHGLLAFFKSEKLDMIRLRNPWGEREWNGPWSDTSEEWQKVSKSEREKMGVTVQDDGEFWMTFEDVCRYFTDIIKCRVI | – | 153 × 10^2 ± 38 μM |
